The text below walks through data of patent publication US20050187240A1, “Aaptamine and isoaaptamine and structural modifications thereof” (The Arizona Board of Regents, Acting for and on behalf of …, priority 2004, published 2005).

Values after ≈ are worked out from the molar mass of the structure shown. Where two headings read alike, the source gives them in different places. Where only a bound is given, the exact number is not on record here.

In one data set the test system is lung NCI-H460. The data set is described as follows: Cancer cell growth inhibition, lung NCI-H460. It is filed as cell-based, human. The note with it: lung NCI-H460; for IC50: Homo sapiens, read-out: Cancer Cell Line Results ED50. The text has this:
(§1) Evaluation of demethyloxyaaptamine (3), aaptamine (1), isoaaptamine (2) and hystatin 1 (11) against the Arizona State University Cancer Research Institute's human tumor cell line panel (Table 1) and the NCI 60-cell line human tumor screen were undertaken. (Boyd, M. R., Cancer: Principles and Practices of Oncology Updates; DeVita, et al., Eds; Lippincott: Philadelphia, 1989, Vol. 10, No. 3, pp. 1-12; Boyd, et al., Drug Development Research 1995, 34, 91-109; Boyd, M. R., et al. Cytotoxic Anticancer Drugs: Models and Concepts for Drug Discovery and Development; Valeriote, A., et al., Eds, Kluwer Academic Publishers: Amsterdam, 1992, pp. 11-34.)
(§2) Biology The cancer cell growth inhibitory properties were examined using the murine P388 lymphocytic leukemia cell line and a selection of human cancer cell lines.
(§3) All of the synthetic products were evaluated against a minipanel of human cancer cell lines, the murine P388 lymphocytic leukemia cell line and a selection of microorganisms.

A further data set has as its system melanoma SK-MEL-5. The experiment in a line: Cancer cell growth inhibition, melanoma SK-MEL-5. It is filed as cell-based, human. To be noted: Table 1. The source says:
(§4) (Boyd, M. R., Cancer: Principles and Practices of Oncology Updates; […], et al., Eds; Lippincott: Philadelphia, 1989, Vol. 10, No. 3, pp. 1-12; Boyd, et al., Drug Development Research 1995, 34, 91-109; Boyd, M. R., et al. Cytotoxic Anticancer Drugs: Models and Concepts for Drug Discovery and Development; Valeriote, A., et al., Eds, Kluwer Academic Publishers: Amsterdam, 1992, pp. 11-34.)

In a further data set the test system is ovary OVCAR-3. The experiment in a line: Cancer cell growth inhibition, ovary OVCAR-3. The class given is cell-based, human. To be noted: Table 1.
Excerpt: as §4

The subject of a further data set is CNS SF-295. The experiment in a line: Cancer cell growth inhibition, CNS SF-295. The class given is cell-based, human. The note with it: Table 1.
Excerpt: as §4

The next data set deals with colon KM 20L2. The data set is described as follows: Cancer cell growth inhibition, colon KM 20L2. The class given is cell-based, human. The note with it: colon KM 20L2; for IC50: Homo sapiens, read-out: Cancer Cell Line Results ED50.
Excerpt: as §1, §2, §3

Data set [1] relates to murine P388 lymphocytic leukemia cell line. The data set is described as follows: Cancer cell growth inhibition, murine P388 lymphocytic leukemia cell line. It is filed as cell-based. To be noted: for IC50: Mus musculus, read-out: Cancer Cell Line Results ED50.
Excerpt: as §1, §2, §3

In the next data set the test system is renal A498. The data set is described as follows: Cancer cell growth inhibition, renal A498. It is filed as cell-based, human. The note with it: Table 1.
Excerpt: as §4

In another data set the test system is Candida albicans. The data set is described as follows: Broth microdilution susceptibility assay, Candida albicans. The class given is cell-based. On the technique in general: Dilution methods test growth across graded concentrations, often in twofold steps.
The next data set has as its system Cryptococcus neoformans. The data set is described as follows: Broth microdilution susceptibility assay, Cryptococcus neoformans. It is filed as cell-based.
For the next data set, the system named is pancreas BXPC-3. The data set is described as follows: Cancer cell growth inhibition, pancreas BXPC-3. It is filed as cell-based, human. The note with it: pancreas BXPC-3. How it is done: as §2, §3
Another data set relates to Micrococcus luteus. The data set is described as follows: Broth microdilution susceptibility assay, Micrococcus luteus. It is filed as cell-based.
Another data set has as its system Neisseria gonorrhoeae. The data set is described as follows: Broth microdilution susceptibility assay, Neisseria gonorrhoeae. The class given is cell-based.
In another data set the test system is prostrate DU-145. The data set is described as follows: Cancer cell growth inhibition, prostate DU-145. It is filed as cell-based, human. On the procedure: as §2, §3
The subject of the next data set is Enterobacter cloacae. The experiment in a line: Broth microdilution susceptibility assay, Enterobacter cloacae. The class given is cell-based.
For a further data set, the system named is Streptococcus pneumoniae. The experiment in a line: Broth microdilution susceptibility assay, Streptococcus pneumoniae. It is filed as cell-based.
The next data set concerns CNS SF-268. The data set is described as follows: Cancer cell growth inhibition, CNS SF-268. It is filed as cell-based, human. The note with it: CNS SF-268. On the procedure: as §2, §3
The subject of data set [2] is Stenotrophomonas maltophilia. The data set is described as follows: Broth microdilution susceptibility assay, Stenotrophomonas maltophilia. The class given is cell-based.
A further data set has as its system Staphylococcus aureus. The experiment in a line: Broth microdilution susceptibility assay, Staphylococcus aureus. It is filed as cell-based.
A further data set concerns Escherichia coli. The experiment in a line: Broth microdilution susceptibility assay, Escherichia coli. It is filed as cell-based.
A further data set concerns Enterococcus faecalis. The data set is described as follows: Broth microdilution susceptibility assay, Enterococcus faecalis. It is filed as cell-based.
The nature of data set [3]: Stability of the substance (observation). The class given is physicochemical. The text has this: When newly isolated, isoaaptamine (2) appears as a yellow colored powder that rapidly changes to dark green and finally brown or black, presumably due to air oxidation. […] For that purpose, isoaaptamine (2) was first phosphorylated with dibenzylphosphate (Pettit, G. R. et al., Anti-Cancer Drug Design 2000, 15, 203-216; Silverberg, L. J., Tetrahedron Lett. 1996, 37, 771-774). […] Scheme 2 below illustrates the aforementioned synthesis method. [drawing 17] Biology

The next data set relates to breast MCF-7. The data set is described as follows: Cancer cell growth inhibition, breast MCF-7. The note with it: breast MCF-7. The class given is cell-based, human. On the procedure: as §2, §3
Data set [4] deals with T1, PKC alpha (Homo sapiens, UniProt P17252). The experiment in a line: Inhibition of [3H]phorbol 12,13-dibutyrate binding to PKC alpha. To be noted: 30 μM compound; read-out: inhibition of [3H]phorbol 12,13-dibutyrate binding to PKC alpha. On the procedure:
Isoaaptamine (2) and derivatives 4, 5, 7, 8, and 14-18 were evaluated as ligands for PKC, based on the initial report of activity for isoaaptamine (Patil, et al., PCT Int. Appl. WO 95/0584 March 1995). Activity was measured at 30 μM compound using inhibition of [^3H-20]phorbol 12,13-dibutyrate binding to PKC alpha as described previously (Kazanietz, M. G., et al., Molecular Pharmacol., 1993, 44, 298). Assays were carried out with triplicate measurements in either single or triplicate experiments, depending on the compound.
Compounds 4, 5, 9a-c, and 10a-d were evaluated as ligands for PKC, based on the initial report of activity for isoaaptamine. Activity was measured at 30 μM compound using inhibition of [20-^3H]phorbol 12,13-dibutyrate binding to PKC alpha as described previously (Kazanietz, M. G., et al., Characterization of Ligand and Substrate Specificity for the Calcium-Dependent and Calcium-Independent Protein Kinase C Isoenzymes, Molecular Pharmacol. 1993, 44, 298-307). Assays were carried out with triplicate measurement in either single or triplicate experiments, depending on the compound. Inhibition by 9a and 9b was 6.4% and 9.2%, respectively. That by 10a, 10b, and 10d was 11.8%, 12.6%, and 16.0%, respectively. That by other derivatives was 5% or less. We conclude that these compounds show only very weak activity as ligands for PKC.

Data set [5] relates to Mycobacterium tuberculosis H37Rv. The experiment in a line: Microplate Alamar Blue Assay, Mycobacterium tuberculosis. It is filed as cell-based. To be noted: 6.25 μg/ml.
For data set [6], the target named is T1, PKC alpha. The data set is described as follows: Inhibition of PKC catalytic activity (peptide substrate phosphorylation). It is filed as biochemical. The text has this: We further evaluated the ability of the derivatives to inhibit PKC catalytic activity. […] Inhibition by 10c was 19.5±7.6% and inhibition by 4, 5, and 9a, b, c was 6% or less (all values are mean±SEM, three experiments). […] In both cases, the inhibition curves were steeper than predicted for a competitive inhibitor, consistent with a complicated mechanism of action (Hill coefficients for 10a and 10b of 1.5±0.1 and 2.0±0.5, respectively).

Where [7] appears, read: Homo sapiens, Table 5, read-out: Cancer Cell Line Results ED50.

For `COC1=Cc2ccnc3ccnc(c23)C1=O` [Compound 3, 9-demethyloxyaaptamine], the IC50 worked out at 2.3 µg/mL (≈ 10.8 µM) in the data set with lung NCI-H460 (Table 1); 2.1 µg/mL (≈ 9.9 µM) in the data set with colon KM 20L2 (Table 1); 0.31 µg/mL (≈ 1.46 µM) in data set [1] (Table 1, leukemia murine P388). Moreover, the “Cancer Cell Line Results ED50” value in the data set on melanoma SK-MEL-5 amounted to 1.00 µg/mL; in the data set on ovary OVCAR-3 it was 0.39 µg/mL; in the data set on CNS SF-295 it was 2.80 µg/mL; in the data set with renal A498, 4.20 µg/mL. Also, the “P388 ED50” value in data set [1] (murine P388) was 0.31 µg/mL.

For `COc1cc2ccnc3c2c(c1OC)NC=C3` [Compound 1, aaptamine], the IC50 was determined as 3.2 µg/mL (≈ 14 µM) in the data set on lung NCI-H460 (Table 1); 3.6 µg/mL (≈ 15.8 µM) in the data set on colon KM 20L2 (Table 1); 3.6 µg/mL (≈ 15.8 µM) in data set [1] (Table 1, leukemia murine P388). Further, the “Cancer Cell Line Results ED50” value in the data set with melanoma SK-MEL-5 turned out to be 4.30 µg/mL; in the data set on ovary OVCAR-3, 4.90 µg/mL; in the data set with CNS SF-295, 4.10 µg/mL; in the data set with renal A498, 3.20 µg/mL.

Take “Disodium isoaaptamine 9-O-phosphate [Compound 11]”: the “Range of minimum inhibitory concentration” value is “* (no inhibition at 64 ug/ml)” with Candida albicans (Table 2); “* (no inhibition at 64 ug/ml)” with Cryptococcus neoformans (Table 2); “* (no inhibition at 64 ug/ml)” in the data set on Micrococcus luteus (Table 2); below 0.5 µg/mL with Neisseria gonorrhoeae (Table 2); “* (no inhibition at 64 ug/ml)” in the data set with Enterobacter cloacae (Table 2); 16 to 32 µg/mL with Streptococcus pneumoniae (Table 2). Also, the “Range of minimum inhibitory concentration” value is “* (no inhibition at 64 ug/ml)” in [2] (Table 2), 64 µg/mL in the data set with Staphylococcus aureus (Table 2), “* (no inhibition at 64 ug/ml)” with Escherichia coli (Table 2) and “* (no inhibition at 64 ug/ml)” in the data set on Enterococcus faecalis (Table 2). Moreover, the “Cancer Cell Line Results ED50” value in the data set with lung NCI-H460 (Table 1) was above 10 µg/mL; in the data set on colon KM 20L2 (Table 1) it was above 10 µg/mL; in data set [1] (Table 1, leukemia murine P388) it was 3.0 µg/mL. Also, the “Cancer cell growth inhibitory ED50” value worked out at 1.9 µg/mL in the data set with lung NCI-H460 (Table 3); 0.74 µg/mL in the data set with pancreas BXPC-3 (Table 3); 0.52 µg/mL in the data set with prostrate DU-145 (Table 3, prostrate DU-145); 0.88 µg/mL with colon KM 20L2 (Table 3); 0.28 µg/mL in the data set on CNS SF-268 (Table 3); 0.23 µg/mL in [1] (Table 3, leukemia P-388). In the data set with breast MCF-7 (Table 3), the “Cancer cell growth inhibitory ED50” value came to 2.2 µg/mL. Besides, in [3], the “stability” value is recorded as “more stable”.

The term inhibition denotes the relative decrease from the control value, in per cent. Consider `COc1ccc(CN2C=Cc3cc(OC)c(OC)c4c3c2cc[n+]4Cc2ccc(OC)cc2)cc1.[Br-]` [Compound 10b, 8,9-Dimethoxy-1,4-bis-(4-methoxybenzyl)-4H-benzo-[de][1,6]naphthyridin-1-ium bromide], for which the “Range of minimum inhibitory concentration” value in the data set with Candida albicans (Table 6) was “* (no inhibition at 64 μg/mL)”; in the data set on Cryptococcus neoformans (Table 6) it was 32 to 64 µg/mL; in the data set with Micrococcus luteus (Table 6), below 0.5 µg/mL; with Neisseria gonorrhoeae (Table 6) it was 4 µg/mL; in the data set on Enterobacter cloacae (Table 6), “* (no inhibition at 64 μg/mL)”; with Streptococcus pneumoniae (Table 6), 16 to 32 µg/mL. Besides, the “Range of minimum inhibitory concentration” value was “* (no inhibition at 64 μg/mL)” in data set [2] (Table 6), 4 µg/mL in the data set on Staphylococcus aureus (Table 6), “* (no inhibition at 64 μg/mL)” in the data set with Escherichia coli (Table 6) and 16 to 32 µg/mL with Enterococcus faecalis (Table 6). For the same compound, the IC50 in the data set with lung NCI-H460 (Table 5) is 0.33 µg/mL; in the data set on pancreas BXPC-3 (setting [7]), 0.11 µg/mL; in the data set on prostrate DU-145 (Homo sapiens, DU-145, Table 5, prostate DRU-145, read-out: Cancer Cell Line Results ED50), 0.1 µg/mL; in the data set on colon KM 20L2 (Table 5), 0.13 µg/mL; in the data set on CNS SF-268 (setting [7]), 0.27 µg/mL; in data set [1] (Table 5, leukemia P388), 1.3 µg/mL. Besides, the IC50 worked out at 7.4 ± 1.2 µM at PKC alpha [6] (complete dose response curves, mean±SEM, 3 experiments, read-out: ID50 for inhibition of PKC catalytic activity) and 0.39 µg/mL in the data set on breast MCF-7 (Homo sapiens, MCF7, Table 5, read-out: Cancer Cell Line Results ED50). In addition, the inhibition at 30 µM on PKC alpha [4] stood at 12.6%; at PKC alpha [6] (30 μM compound, 1 μM phorbol 12-myristate 13-acetate, 100 μg/ml phospholipid, mean±SEM, three experiments, read-out: percent inhibition of PKC catalytic activity) it was 84.6 ± 1.1%. For the same compound, the inhibition at 6.25 µg/mL in [5] was determined as 97%. The “Hill coefficient of PKC inhibition curve” value on PKC alpha [6] came out at 2.0±0.5.
